Data set [1] deals with rhesus monkey kidney membranes (NPR-A and NPR-C). Nature of the data set: Competition binding in rhesus monkey kidney membranes. The conditions noted are these: FIG. 11, rhesus monkey kidney membranes. The protocol: For preparation of membranes from Rhesus monkey tissues, frozen tissue was placed between parafilm and broken up into pieces by hitting with a hammer. Tissue was transferred to a 125 mL polypropylene tube containing 100 mL of ice-cold buffer #1 (50 mM HEPES, pH 7.4, 1 mM EDTA, 250 mM sucrose, 0.7 mg/mL pepstatin A, 0.5 mg/mL leupeptin, 1 mM PMSF, and 1 mM phosphoramidon). Tissue was homogenized with a Brinkman polytron on a setting of 5 two times for 10 sec. The sample was placed on ice between homogenizations. 11 mL of 30 mM MgCl2/100 mM NaCl containing 1 mM phosphoramidon was added to the homogenate. The homogenate was spun at 400×g for 10 min at 4° C. in a HB-4 rotor. The supernatant was transferred to another tube and spun as above. The supernatant was passed though four layers of sterile gauze then centrifuged at 30,000×g for 20 min at 4° C. in a 60 Ti rotor. […]
Membrane competition binding assays. […] The plates were washed six times with PBS, then air dried prior to adding scintillant and counted in a Packard Topcount scintillation counter for 1 min/well. Binding was measured in duplicate for each concentration of competitor.
Data analysis. The competition binding curves and cGMP production dose responses were analyzed by the four-parameter logistic equation with the KaleidaGraph™ program (Synergy Software, PA) to obtain estimates of the IC50 or EC50 values. […]

Another data set concerns the target T1, hNPR-A (Homo sapiens, UniProt P16066).
T1 sequence (P16066 33-1061): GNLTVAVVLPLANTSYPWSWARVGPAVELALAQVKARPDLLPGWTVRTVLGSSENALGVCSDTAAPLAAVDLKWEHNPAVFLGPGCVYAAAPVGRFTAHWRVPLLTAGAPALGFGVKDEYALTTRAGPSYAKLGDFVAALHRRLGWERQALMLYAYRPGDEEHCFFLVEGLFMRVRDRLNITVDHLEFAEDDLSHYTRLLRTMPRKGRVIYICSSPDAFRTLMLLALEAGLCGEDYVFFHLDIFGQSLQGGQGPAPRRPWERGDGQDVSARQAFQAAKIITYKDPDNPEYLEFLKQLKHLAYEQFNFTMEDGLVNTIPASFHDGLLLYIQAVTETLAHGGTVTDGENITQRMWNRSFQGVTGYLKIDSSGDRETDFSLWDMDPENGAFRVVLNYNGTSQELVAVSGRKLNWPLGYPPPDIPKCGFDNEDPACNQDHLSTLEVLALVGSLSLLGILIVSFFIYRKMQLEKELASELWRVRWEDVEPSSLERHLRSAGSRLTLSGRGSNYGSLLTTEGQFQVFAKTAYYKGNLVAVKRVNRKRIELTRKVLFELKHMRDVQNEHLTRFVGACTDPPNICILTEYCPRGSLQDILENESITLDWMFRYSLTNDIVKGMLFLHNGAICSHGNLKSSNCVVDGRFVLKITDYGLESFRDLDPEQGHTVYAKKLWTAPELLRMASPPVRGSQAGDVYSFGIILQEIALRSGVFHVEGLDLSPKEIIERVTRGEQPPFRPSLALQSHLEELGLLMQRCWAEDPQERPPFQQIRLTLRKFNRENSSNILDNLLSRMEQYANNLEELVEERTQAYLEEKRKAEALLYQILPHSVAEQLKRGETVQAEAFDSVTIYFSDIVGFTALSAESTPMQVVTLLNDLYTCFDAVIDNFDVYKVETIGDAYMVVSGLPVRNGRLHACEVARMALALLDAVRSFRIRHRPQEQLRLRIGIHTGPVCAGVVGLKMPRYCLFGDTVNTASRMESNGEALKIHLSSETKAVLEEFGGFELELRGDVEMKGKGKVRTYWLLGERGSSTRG
The experiment in a line: Competition binding to hNPR-A (Table I, FIG. 5).

A further data set has as its system rhesus monkeys. The format is in vivo. The conditions noted are these: rhesus monkey. The protocol: Administration of Natriuretic Peptides to Rhesus Monkeys. […] A second iv catheter was inserted for fluid administration and blood withdrawal. A urinary catheter was inserted and urine flow monitored at 10 minute intervals. Urine output and blood withdrawal volumes were replaced by intravenous administration of equal volumes of equal parts of one-half normal saline and 5% (W/V) dextrose in water (D5W). […] Every ten minutes, urine, if present, was collected, the volume recorded and analyzed for sodium and potassium content.

Where a SMILES comes first, the peptide text is derived from it. Bridges are numbered along the chain shown (N, C = ends).

Usually IC50 stands for the concentration that gives 50% inhibition.

On to `CC[C@H](C)[C@@H]1NC(=O)[C@H](CCCNC(=N)N)NC(=O)[C@H](CC(=O)O)NC(=O)[C@H]([C@@H](C)CC)NC(=O)[C@H](CO)NC(=O)CNC(=O)[C@H]([C@@H](C)O)NC(=O)[C@H](Cc2ccccc2)NC(=O)[C@@H](NC(=O)[C@H](CO)NC(=O)[C@H](CO)NC(=O)[C@H](CCCNC(=N)N)NC(=O)[C@H](CCCNC(=N)N)NC(=O)[C@H](CC(C)C)NC(=O)[C@@H](N)CO)CSSC[C@@H](C(=O)N[C@@H](CC(N)=O)C(=O)N[C@@H](CO)C(=O)N[C@@H](Cc2ccccc2)C(=O)N[C@@H](CCCNC(=N)N)C(=O)N[C@@H](Cc2ccc(O)cc2)C(=O)O)NC(=O)CNC(=O)[C@H](CC(C)C)NC(=O)CNC(=O)[C@H](CO)NC(=O)[C@H](CCC(N)=O)NC(=O)[C@H](C)NC(=O)[C@H](CCCNC(=N)N)NC1=O` [ANF 27], for which the “Displacement of 125I-rat ANP binding” value in data set [1] was “a smaller portion of the total binding is displaced”.

The compound `CC[C@H](C)[C@@H]1NC(=O)[C@H](CCCNC(=N)N)NC(=O)[C@H](CC(=O)O)NC(=O)[C@H]([C@@H](C)CC)NC(=O)[C@H](CO)NC(=O)CNC(=O)[C@H]([C@@H](C)O)NC(=O)[C@H](Cc2ccccc2)NC(=O)[C@@H](NC(=O)[C@H](CO)NC(=O)[C@H](CO)NC(=O)[C@H](CCCNC(=N)N)NC(=O)[C@H](CCCNC(=N)N)NC(=O)[C@H](CC(C)C)NC(=O)[C@H](CO)NC(=O)[C@H](CCCNC(=N)N)NC(=O)[C@@H]2CCCN2C(=O)[C@H](C)NC(=O)[C@@H](N)[C@@H](C)O)CSSC[C@@H](C(=O)N[C@@H](CC(N)=O)C(=O)N[C@@H](CO)C(=O)N[C@@H](Cc2ccccc2)C(=O)N[C@@H](CCCNC(=N)N)C(=O)N[C@@H](Cc2ccc(O)cc2)C(=O)O)NC(=O)CNC(=O)[C@H](CC(C)C)NC(=O)CNC(=O)[C@H](CO)NC(=O)[C@H](CCC(N)=O)NC(=O)[C@H](C)NC(=O)[C@H](CCCNC(=N)N)NC1=O` [ANF 76] (H-TAPRSLRRSSCFTGSIDRIRAQSGLGCNSFRY-OH; disulfide 11-27; C-terminus assumed) gave an IC50 on hNPR-A of 8.9 pM.

Regarding `CC[C@H](C)[C@@H]1NC(=O)[C@H](CCCNC(=N)N)NC(=O)[C@H](CC(=O)O)NC(=O)[C@H]([C@@H](C)CC)NC(=O)[C@H](CO)NC(=O)CNC(=O)[C@H]([C@@H](C)O)NC(=O)[C@H](Cc2ccccc2)NC[C@@H](NC(=O)[C@H](CO)NC(=O)[C@H](CO)NC(=O)[C@H](CCCNC(=N)N)NC(=O)[C@H](CCCNC(=N)N)NC(=O)[C@H](CC(C)C)NC(=O)[C@@H](N)CO)CSSC[C@@H](C(=O)N[C@@H](CC(N)=O)C(=O)N[C@@H](CO)C(=O)N[C@@H](Cc2ccccc2)C(=O)N[C@@H](CCCNC(=N)N)C(=O)N[C@@H](Cc2ccc(O)cc2)C(=O)O)NC(=O)CNC(=O)[C@H](CC(C)C)NC(=O)CNC(=O)[C@H](CO)NC(=O)[C@H](CCC(N)=O)NC(=O)[C@H](C)NC(=O)[C@H](CCCNC(=N)N)NC1=O` [ANF 84], the “Urine flow, potassium excretion and sodium excretion” value with rhesus monkeys (7.5 ng/kg/min 60-minute infusion) is “began to rise in parallel at the beginning of the 7.5 ng/kg/min infusion, but returned to baseline by 60 minutes”. For the same compound, in the data set on rhesus monkeys (25 ng/kg/min infusion), the Potassium excretion entry was “remained at slightly-elevated levels”, the “Sodium excretion above baseline” value is roughly 100 fold and the “Urine flow above baseline” value is recorded as “approximately 10 fold”. Besides, the Systolic arterial pressure result with rhesus monkeys (escalating iv infusion from 7.5 ng/kg/min) is given as “began to gradually decline”. For the same compound, the “Infusion rate at which dosing was discontinued because of hypotension” value with rhesus monkeys (in vivo) is on record as 25 ng/kg/min.

Values taken from patent US6525022B1, “Receptor specific atrial natriuretic peptides” (Genentech, Inc., priority 1993, dated 2003).
